The values below come from PubChem BioAssay (NCI).

Some test systems named below: HCC-2998 colon; HL-60(TB) leukemia; MDA-MB-231 breast; NCI-H23 lung; NCI-H460 lung; OVCAR-5 ovarian; SK-MEL-28 melanoma; SK-MEL-5 melanoma; SNB-75 CNS; EKVX NSCLC.
Holding throughout (test): inhibition of tumour cell growth, NCI panel, 48 h

Structures are written as SMILES. Where “and” joins values, the source holds several entries; their conditions need not be identical. Equal entries are not always repeated.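 Following 48 hours of exposure in 96-well plates, responses at five concentrations were used to interpolate endpoints linearly. The concentration for 50% growth inhibition is given as GI50. TGI denotes the concentration required for complete inhibition of growth.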

For `CC(=O)N[C@@H](Cc1ccc(OP(=O)(O)O)cc1)C(=O)N[C@H]1CCC(=O)N2CCC[C@@H](C(=O)NCc3cccc4ccccc34)N2C1=O`, the GI50 in the experiment with HCC-2998 colon, in the experiment on HL-60(TB) leukemia, in the experiment with MDA-MB-231 breast, with NCI-H23 lung, with NCI-H460 lung and in the experiment on OVCAR-5 ovarian was above 25 µM in each case. Besides, the GI50 in the experiment on SK-MEL-28 melanoma, in the experiment on SK-MEL-5 melanoma and in the experiment on SNB-75 CNS was above 25 µM each time. For the same compound, the TGI in the experiment on HCC-2998 colon, in the experiment on HL-60(TB) leukemia, with MDA-MB-231 breast, with NCI-H23 lung, in the experiment on NCI-H460 lung and with OVCAR-5 ovarian was above 25 µM in each case. Besides, the TGI in the experiment on SK-MEL-28 melanoma, in the experiment with SK-MEL-5 melanoma and in the experiment with SNB-75 CNS was above 25 µM throughout.
`COC(=O)Nc1nc2ccc(C(=O)C3CC3)cc2[nH]1`: the GI50 was 0.554 µM in the experiment on EKVX NSCLC; 0.771 µM with HCC-2998 colon; 0.448 µM in the experiment on HL-60(TB) leukemia; 1.28 µM with MDA-MB-231 breast; 0.47 µM in the experiment with NCI-H23 lung; 0.363 µM with NCI-H460 lung. For the same compound, the GI50 was 3.25 µM in the experiment with OVCAR-5 ovarian, 0.506 µM with SK-MEL-28 melanoma and 0.385 µM with SK-MEL-5 melanoma. Further, the TGI with EKVX NSCLC is above 100 µM; in the experiment on HL-60(TB) leukemia, above 100 µM; in the experiment on MDA-MB-231 breast, above 46.1 µM; in the experiment with NCI-H23 lung it was above 27.6 µM; with NCI-H460 lung it was 20.7 µM; in the experiment with OVCAR-5 ovarian it was above 56.1 µM. Besides, the TGI with SK-MEL-28 melanoma is above 63.7 µM; in the experiment with SK-MEL-5 melanoma it was 6.23 µM.
With `Clc1ccc(Nc2ncnc3ccccc23)cc1`, the GI50 was 10.1 µM with EKVX NSCLC; above 100 µM in the experiment with HCC-2998 colon; 36.7 µM in the experiment on HL-60(TB) leukemia; above 100 µM with MDA-MB-231 breast; 74.6 µM with NCI-H23 lung; 43.7 µM in the experiment with NCI-H460 lung. The GI50 in the experiment on OVCAR-5 ovarian was above 100 µM; with SK-MEL-28 melanoma it was above 100 µM; with SK-MEL-5 melanoma it was 21.6 µM. Besides, the TGI in the experiment on EKVX NSCLC, with HCC-2998 colon, in the experiment on HL-60(TB) leukemia, in the experiment on MDA-MB-231 breast, with NCI-H23 lung and in the experiment on NCI-H460 lung was above 100 µM throughout. For the same compound, the values for the TGI in the experiment on OVCAR-5 ovarian, with SK-MEL-28 melanoma and in the experiment with SK-MEL-5 melanoma were above 100 µM, above 100 µM and 56.1 µM, respectively.
Turning to `N#CC1(C#N)C2C=CC(C3CC=CC32)C1(C#N)C#N` (configuration not stated), the TGI in the experiment on EKVX NSCLC is 24 µM; in the experiment on HCC-2998 colon, above 50 µM; in the experiment on HL-60(TB) leukemia it was 2.87 µM; with MDA-MB-231 breast, 17.2 µM; in the experiment with NCI-H23 lung, 19.8 µM; in the experiment on NCI-H460 lung it was above 50 µM. The values for the TGI with OVCAR-5 ovarian, with SK-MEL-28 melanoma and in the experiment on SK-MEL-5 melanoma were 16.8 µM, 21.6 µM and 15.6 µM, respectively. Moreover, in the experiment on SK-MEL-5 melanoma, the GI50 was 8.61 µM.
As for `COc1ccc(C(=O)O[C@@H]2CCN3CC[C@H](C)[C@H]23)cc1`, the TGI in the experiment with EKVX NSCLC, with HL-60(TB) leukemia, in the experiment with MDA-MB-231 breast, with NCI-H23 lung, with NCI-H460 lung and with OVCAR-5 ovarian was above 100 µM each time. The TGI with SK-MEL-28 melanoma, in the experiment with SK-MEL-5 melanoma and in the experiment with SNB-75 CNS was above 100 µM in each case.
Consider `CC[C@@]1(O)C(=O)OCc2c1cc1n(c2=O)Cc2cc3c(OC)cccc3nc2-1`, for which the TGI in the experiment with EKVX NSCLC was 8.56 µM; in the experiment on MDA-MB-231 breast, above 100 µM; in the experiment on NCI-H23 lung, 0.0775 µM and 0.505 µM; in the experiment with NCI-H460 lung, 1.27 µM; with OVCAR-5 ovarian it was 7.13 µM; with SK-MEL-28 melanoma it was above 28.1 µM. In addition, the TGI in the experiment on SK-MEL-5 melanoma was determined as 0.311 µM; in the experiment with SNB-75 CNS, 2.06 µM. Also, the GI50 in the experiment on HL-60(TB) leukemia was 0.00321 µM; in the experiment on NCI-H23 lung, 0.0069 µM; with NCI-H460 lung, 0.000801 µM and < 0.215 µM; in the experiment on OVCAR-5 ovarian, 0.0386 µM; in the experiment with SK-MEL-28 melanoma it was 1.72 µM; in the experiment on SK-MEL-5 melanoma, 0.0229 µM. Besides, the GI50 in the experiment on SNB-75 CNS was 0.00687 µM.
Regarding `Cc1ccc([I+]c2ccc(C)cc2)cc1`, the GI50 was 0.484 µM with EKVX NSCLC; 6.44 µM in the experiment on HCC-2998 colon; 25.1 µM in the experiment with MDA-MB-231 breast; 2.03 µM in the experiment on NCI-H23 lung; 3.48 µM in the experiment on NCI-H460 lung; 39.2 µM in the experiment on OVCAR-5 ovarian. In addition, the GI50 is 10.6 µM in the experiment on SK-MEL-28 melanoma, 0.79 µM in the experiment on SK-MEL-5 melanoma and 7.44 µM with SNB-75 CNS. Moreover, the TGI in the experiment with EKVX NSCLC was 42.5 µM; in the experiment on HCC-2998 colon it was above 100 µM; in the experiment with MDA-MB-231 breast it was above 100 µM; in the experiment on NCI-H23 lung it was 93.4 µM; in the experiment on NCI-H460 lung, 30.4 µM; in the experiment with OVCAR-5 ovarian it was above 100 µM. Besides, the values for the TGI in the experiment with SK-MEL-28 melanoma, in the experiment on SK-MEL-5 melanoma and in the experiment on SNB-75 CNS were above 100 µM, 3.89 µM and above 100 µM, respectively.
In the case of `CCOC(=O)Cc1csc(Nc2nc(O)c(C3=c4ccccc4=NC3=O)s2)n1`, the GI50 in the experiment on EKVX NSCLC is 77.6 µM; in the experiment on HCC-2998 colon, 29.8 µM; in the experiment on MDA-MB-231 breast it was 29.1 µM; in the experiment on NCI-H23 lung it was 56 µM; in the experiment on NCI-H460 lung it was 21.6 µM; in the experiment with OVCAR-5 ovarian it was 43.6 µM. Further, the values for the GI50 in the experiment on SK-MEL-28 melanoma and with SK-MEL-5 melanoma were 45.7 µM and 28.5 µM, respectively. The TGI is above 100 µM with EKVX NSCLC; above 100 µM in the experiment on HCC-2998 colon; 72.1 µM with MDA-MB-231 breast; above 100 µM with NCI-H23 lung; 65.2 µM in the experiment on NCI-H460 lung; above 100 µM in the experiment with OVCAR-5 ovarian. The TGI in the experiment on SK-MEL-28 melanoma and in the experiment on SK-MEL-5 melanoma was above 100 µM each time.
As for `Nc1cc2c(c3ccccc13)C(CCl)CN2C(=O)c1cc2cc(NC(=O)c3cc4ccccc4o3)ccc2[nH]1` (configuration not stated), the TGI was 0.43 µM in the experiment on EKVX NSCLC; 0.675 µM with HCC-2998 colon; below 0.11 µM in the experiment on HL-60(TB) leukemia; above 1100 µM in the experiment with MDA-MB-231 breast; 0.027 µM and 0.125 µM in the experiment on NCI-H23 lung; 138 µM with OVCAR-5 ovarian. Further, the GI50 with HL-60(TB) leukemia was above 0.11 µM; in the experiment on MDA-MB-231 breast, above 0.11 µM; in the experiment on NCI-H460 lung it was 0.000351 µM; with OVCAR-5 ovarian, above 0.11 µM.
Consider `CO[C@@H]1[C@H](N(C)C(=O)c2ccccc2)C[C@@H]2O[C@]1(C)n1c3ccccc3c3c4c(c5c6ccccc6n2c5c31)C(=O)NC4=O`, for which the GI50 in the experiment with EKVX NSCLC was 0.858 µM; in the experiment with HCC-2998 colon it was above 100 µM; with HL-60(TB) leukemia it was above 100 µM; in the experiment with MDA-MB-231 breast, 0.48 µM; in the experiment on NCI-H23 lung, 0.842 µM; in the experiment with NCI-H460 lung it was 0.646 µM. Also, the GI50 with SK-MEL-28 melanoma is above 100 µM; with SK-MEL-5 melanoma, 0.797 µM. For the same compound, the TGI in the experiment on EKVX NSCLC, in the experiment with HCC-2998 colon, in the experiment with HL-60(TB) leukemia, in the experiment on MDA-MB-231 breast, in the experiment on NCI-H23 lung and in the experiment with NCI-H460 lung was above 100 µM each time. The TGI with SK-MEL-28 melanoma and in the experiment on SK-MEL-5 melanoma was above 100 µM in each case.
